This passage reports melting point results from a melting point compilation (Tetko et al.; mined from patent text by program, amines drawn as free bases though some values may be those of a salt).

A value given as a limit tells only on which side of the number the result lay.

As usually defined, the melting point is the temperature of the solid-liquid transition.

`CCOC(=O)c1c(SC)c(C#N)c(=O)n2ccccc12` displayed a melting point of 128 to 129 °C.

`Cc1ccc(-c2ccc3c(c2)C=C(C(=O)Nc2ccc(CN(C)C4CCOCC4)cc2)CCO3)cc1` displayed a melting point of 162 to 163 °C.

Compound `Cc1cc(Nc2nccc(-c3sc(CO)nc3C)n2)ccc1N1CCOCC1` returned a melting point of 93 to 94 °C.

Turning to `Cc1ccc(NC(=O)c2ccc(CN(C)C)c(C(F)(F)F)c2)cc1-c1ccc2ccncc2c1`, the melting point lay in the range of 169 to 172 °C.

With `CC(C)(C)c1nc2cc(N3CCCCC3)c(N=C=S)cc2s1`, the melting point lay within 112 to 114 °C.

On to `CCn1c(=O)ccc2cnc(Nc3ccc(-c4ccccc4)cc3)nc21`, for which the melting point fell in the range of 207 to 208 °C.

`CS(=O)(=O)c1nc2c(F)cccc2s1` showed a melting point of 160 °C.

As for `CC(C)C1(C#N)c2ccccc2C=CN1C(=O)c1ccccc1` (stereo not given), the melting point was 124 to 126 °C.

Regarding `Cc1nc2c(c3ccccc3n3nnnc23)n1CC(C)(C)O`, the melting point was 202 to 205 °C.

`CCOC(=O)C1=CNC2=C(C(=O)OCC)CCC(C)N2C1=O` (stereo not given) had a melting point of 138 to 140 °C.

Consider `COc1ccc(S(=O)(=O)Nc2cccc(C)c2NC(=O)c2ccncc2)cc1`, for which the melting point fell in the range of 213 to 217 °C.

Compound `Cc1ccc(N2CCN(Cc3c[nH]c4ncccc34)CC2)cc1` registered a melting point of 220 to 222 °C.

`O=C(O)c1ccc(COc2ccc3c(c2)CCN(C2CCN(C4CCC4)CC2)C3=O)cc1` yielded a melting point of 269 to 270 °C.

`CCC1(CO)COC2(CC(c3ccc(Cl)cc3)SC(c3ccc(Cl)cc3)C2)OC1` (stereo not given): the melting point stood at 138 °C.

In turn, `O=C(NCc1ccccn1)c1cc(OCC(F)(F)F)ccc1O` came in with a melting point of 143 to 145 °C.

`N#CC1c2ccc(Br)cc2CCC1c1ccc(F)cc1` (stereo not given) showed a melting point of 146 °C.

`COc1cc(OC)c(C=O)cn1` gave a melting point of 97 to 98 °C.

The compound `FC(F)(F)c1ccccc1N=C1CCc2cc3c(nc21)C(=Nc1ccccc1C(F)(F)F)CC3` came in with a melting point above 350 °C.

`Oc1ccnc2[nH]cc(-c3ccncn3)c12`: the melting point is above 210 °C.

In turn, `Cc1ccc(S(=O)(=O)OCC2COc3ccc4[nH]ccc4c3O2)cc1` (stereo not given) returned a melting point of 145 °C.

As to `CC(=O)OC(Cn1cncn1)c1ccc(Cl)cc1Cl` (stereo not given), the melting point lay in the range of 92 to 96 °C.

As for `COc1cccc(C#Cc2ccncc2)c1`, the melting point fell in the range of 33 to 35 °C.

For the compound `CCCCN(CCCC)c1ccc(C=CC2=C(C#N)C(=C(C#N)C#N)OC2(C)C(F)(F)F)c(OC)c1` (stereo not given), the melting point fell in the range of 211 to 213 °C.

Compound `CCOc1cc(Cn2cc(CCC(=O)O)c(-c3ccccc3)c2)cc(OCc2csc(-c3ccccc3)n2)c1` registered a melting point of 109 to 110 °C.

As to `COC(=O)CN1C(=S)C(C(C)C)Sc2ccccc21` (stereo not given), the melting point lay within 99 to 100 °C.

As for `O=C1OC2(C=Cc3ccccc3O2)c2ccccc21` (stereo not given), the melting point lay in the range of 113 to 114 °C.

The compound `COc1cc(OC)cc(C(C)N(C)CCCOc2ccc(S(=O)(=O)c3c(C(C)C)c4ccccc4n3C)cc2)c1` (stereo not given) gave a melting point of 156 °C.

For `Oc1ncc(-c2ccc(C(F)(F)F)cc2)cn1`, the melting point was in the range of 271 to 273 °C.

Take `Cn1nnc2cccc(C=O)c21`: the melting point is 126 °C.

Compound `O=C(Nc1ccc(-n2nc(C(F)(F)F)cc2C(F)(F)F)cc1)c1cccc(CO)c1` had a melting point of 160 to 162 °C.

In the case of `COC(=O)c1c(C)nc(C)c(C(=O)O)c1-c1ccccc1[N+](=O)[O-]`, the melting point is 232 to 233 °C.

`Cc1c(NC(=O)c2ccc(OC[C@@H]3CCCO3)cc2)ccc2cc(CN[C@H](C)C(C)(C)C)cnc12` yielded a melting point of 140 to 141 °C.

Compound `CC1(C(=O)Cc2ccc(Cl)cc2[N+](=O)[O-])CC=CS1` (stereo not given) showed a melting point of 142 to 143 °C.

As to `Cc1cccc(C)c1NC(=O)NC1CC(C)(C)c2ccccc2C1(C)C` (stereo not given), the melting point was 216 to 218 °C.

Regarding `O=S1(=O)c2ccccc2N(c2ccc(OCc3ccccc3)cc2)c2ccccc21`, the melting point fell in the range of 203 to 208 °C.
